# How the values were obtained:
# HBV genotype C = test: Serum clearance of HBsAg and viral entry inhibition in PXB-Mouse model (Example 3); assay type: in vivo, uPA/SCID mice with transplanted primary human hepatocytes; conditions: HBC34 antibody (HBC34-v35-mu-IgG2a) 15 mg/kg, not in combination with the siRNA
# Source text: An immune-deficient mouse having transplanted human hepatocytes was used to test the effectiveness of a combination therapy with an HBV-specific siRNA and an anti-HBV antibody in clearing HBsAg.
# Primary human hepatocytes were transplanted into SCID mice for which mouse hepatocytes had previously been destroyed enzamatically. The mice were T- and B-cell deficient. […] Mice were inoculated via tail vein injection with HBV genotype C at 1.0×10^7 viral genomes per mouse. Treatments began eight weeks post-infection.
# HBV-infected mice (n=4 per treatment group) were administered one of seven different treatments: (1) PBS only; (2-4) an anti-HBV antibody (a fully murinized HBC34v35 antibody, HBC34-v35-mu-IgG2a), at one of three doses, administered intraperitoneally twice per week during weeks two and three; or (5-7) an HBV-specific siRNA (HBV02, having an antisense strand of SEQ ID NO:8; see description in Example 1) administered subcutaneously once at the beginning of the study, and the fully murinized HBC34v35, at one of three antibody doses, administered intraperitoneally twice per week during weeks two and three (see Table 7). Mice were sacrificed at week 6.
# Serum samples were collected periodically throughout the study, and viral load, HBsAg, and free HBC34 antibody were measured.
# [1] = system: HBV (rAAV8-1.3HBV strain ayw, D type); test: Combination therapy study in AAV-HBV mice (Example 1): serum HBsAg and HBV DNA; assay type: in vivo, C57BL/6 mice; conditions: AAV/HBV-infected C57BL/6 mice, HBV02 3 mg/kg, HBC34 antibody (HBC34-v7-mu-IgG2a) 15 mg/kg, alone or combined
# Protocol: The mice (C57BL/6 strain) were inoculated with the following amount of rAAV8-1.3HBV strain ayw, D type: 1.0×10^11 viral genomes per mouse in 200 μl volume via tail veins injection. Four weeks after viral inoculation, treatment with test compounds was initiated.
# Entecavir was administered orally once per day.
# HBV = HBV neutralization; assay type: cell-based; conditions: human antibodies against HBsAg
# Protocol: To study and quantitate virus infectivity (or “neutralization”) in the laboratory the person skilled in the art knows various standard “neutralization assays.” For a neutralization assay, animal viruses are typically propagated in cells and/or cell lines. In the context of the present disclosure, for a neutralization assay, cultured cells may be incubated with a fixed amount of HBV in the presence (or absence) of the antibody to be tested. As a readout, the levels of hepatitis B surface antigen (HBsAg) or hepatitis B e antigen (HBeAg) secreted into the cell culture supernatant may be used and/or HBcAg staining may be assessed. In one embodiment of a HBV neutralization assay, cultured cells, for example HepaRG cells, in particular differentiated HepaRG cells, are incubated with a fixed amount of HBV in the presence or absence of the antibody to be tested, for example for 16 hours at 37° C. The incubation may be performed in a medium (e.g., supplemented with 4% PEG 8000). After incubation, cells may be washed and further cultivated. To measure virus infectivity, the levels of hepatitis B surface antigen (HBsAg) and hepatitis B e antigen (HBeAg) secreted into the culture supernatant, e.g., from day 7 to day 11 post-infection, may be determined by enzyme-linked immunosorbent assay (ELISA). Additionally, HBcAg staining may be assessed in an immunofluorescence assay.
# antigenic loop of HBsAg = test: Binding to HBsAg; design: species or system HBV
# HBsAg = HBsAg (Hepatitis B virus genotype D subtype ayw, UniProt P03138); test: Activity measured diagnostically with an immunoassay; assay type: binding, HBV
Molecule,"Serum HBV DNA concentration, antibody monotherapy (HBV genotype C; FIG. 9)","Serum HBsAg concentration, antibody monotherapy (HBV genotype C; FIG. 10)","Reduction of serum HBV DNA (viral load) relative to the saline control ([1]; FIGS. 2A, 2B)","Reduction of serum HBsAg relative to the saline control ([1]; FIGS. 3A, 3B) [log10]",Neutralizing activity (HBV),Affinity of binding to the antigenic loop of HBsAg (antigenic loop of HBsAg),HBV genotypes and mutants recognized (antigenic loop of HBsAg),Stoichiometry of binding to spherical SVPs (antigenic loop of HBsAg; spherical subviral particles),Activity as measured diagnostically with an immunoassay (HBsAg) [IU/mg]
"HBC34: human monoclonal antibody against HBsAg antigenic loop; VH SEQ ID NO:53, VL SEQ ID NO:55",lower,lower,no effect,< 1,high neutralizing activity,high affinity (in the pM range),all 10 HBV genotypes and 18 mutants,low stoichiometry,5000
"HBC24: human antibody against HBsAg, VH SEQ ID NO:75, VL SEQ ID NO:76; murinized heavy and light chains SEQ ID NOs:103 and 104 (antibody, V domains shown, Synthetic sequence HBC24 VH; Synthetic sequence HBC24 VL) VH: EVQLLESGGGLVQPGGSLRLSCAASGSTFTKYAMSWVRQAPGKGLEWVASISGSVPGFGIDTYYADSVKGRFTISRDTSKNTLYLQMNSLRAEDTALYYCAKDVGVIGSYYYYAMDVWGQGTAVTVSS VL: EIVLTQSPGTLSLSPGERATLSCRASQGLSSSYLAWYQQKPGQAPRLLIYSASTRATGIPDRFSGSGSGTDFTLTISRLEPEDFAVYYCQQYAYSPRWTFGQGTKVEIK",,,,,high neutralizing activity,,,,

# Source: US12404318B2, “Combination HBV therapy” (priority 2018, dated 2025)
